Measured values taken from PubChem BioAssay AID2060484 (Molecular Pharmacology Branch, DTP, NCI, 2025).

Test system: SUM149PT spheroids with HUVEC/MSC, viability
Experiment: Anticancer human tumor SUM149PT cell line growth inhibition [GQUAD];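 further: spheroids exposed to drugs for seven days before readout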;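 on viability, T/C: percent viability relative to DMSO vehicle control taken as 100%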
Conditions: for IC50: curve of first compound; for viability, T/C: stronger effect = lower value
Text: DNA G-quadruplex Stabilizer Agents in Combinations in Complex Spheroids
A high-throughput screen of multi-cell type tumor spheroids was designed to identify active combinations of DNA G-quadruplex stabilizer agents and targeted small molecules. Complex spheroids include a stromal component modeled by human endothelial cells (HUVEC) and fibroblasts modeled by human mesenchymal stem cells (MSCs). The concentration ranges selected for each drug and investigational agent were based upon clinically achievable concentrations if the clinical Cmax of the agent was known.
Compounds. The drugs and investigational agents: pidnarulex (CX-5461; NSC782164), APTO-253 (NSC789042), BRACO-19 (NSC847499), peposertib (NSC802822), ceralasertib (NSC780249), elimusertib (NSC800525), camonsertib (NSC841442), AZD-1390 (NSC803789), olaparib (NSC753686), talazoparib (NSC767125), ART-558 (NSC835418), sotorasib (NSC818433), MRTX-1133 (NSC836407), SN-38 (NSC673596), topotecan (NSC609699), etoposide (NSC141540), doxorubicin (NSC123127), gemcitabine (NSC613327), 5-fluorouracil (NSC19893), paclitaxel (NSC125973), vemurafenib (NSC761431), panobinostat (NSC761190), R-306465 (JNJ-16241199; NSC773264), adavosertib (NSC754352), TP-3654 (NSC805149), carboplatin (NSC241240), KSQ-4279 (NSC840948), and staurosporine (NSC755774) were obtained from the National Cancer Institute (NCI) Developmental Therapeutics Program Chemical Repository (34). The FDA-approved anticancer drug set is available from the NCI Developmental Therapeutics Program. […] The stock solutions were prepared in dimethyl sulfoxide (DMSO, Sigma-Aldrich, St. Louis, MO, cat. D2650) at 800-fold the tested concentration and stored at -70 degrees C prior to their use. All drugs and investigational agents were tested over a range starting from a high concentration at or near the clinical Cmax and decreasing in half-log increments. If the clinical Cmax for an agent had not been determined, the highest concentration tested was 10 microM.
2.3 Cell Culture. All cells were maintained in an incubator at 37 degrees C and 5% CO2 with 95% humidity. The PDC lines were cultured according to standard operating procedures established by the NCI PDMR. All PDCs were thawed and cultured in Matrigel-coated flasks prepared with a working solution of 1X Ham's F-12 nutrient mix, without supplementation (Invitrogen, cat. 11765054), 100 U/mL penicillin-streptomycin (Invitrogen, cat. 15140122), and 2.5% Matrigel (Corning Inc., cat. 354248) for the first three passages. The 857933-349-R-J2-PDC line was cultured in 6C/Colon 1B media, which includes advanced DMEM/F-12 (Thermo Fisher Scientific, cat. 12634028), 10 mM HEPES (Thermo Fisher Scientific, cat. 15630080), 1X GlutaMAX supplement (Thermo Fisher Scientific, cat. 35050061), 0.1 mg/mL primocin (InvivoGen, cat. ant-pm-2), 10% defined fetal bovine serum, heat inactivated (HyClone Laboratories Inc., cat. SH30070.03HI), 50% L-WRN conditioned media (ATCC, cat. CRL-3276), 1.25 mM N-Acetyl-L-cysteine (Sigma-Aldrich, cat. A9165), 10 mM nicotinamide (Sigma-Aldrich, cat. N0636), 1X B-27 supplement (Thermo Fisher Scientific, cat. 17504044), 1X N-2 supplement (Thermo Fisher Scientific, cat. 17502048), 10 microM Y-27632 dihydrochloride (Tocris Bioscience, cat. 1254), and 50 ng/mL human EGF recombinant protein (Thermo Fisher Scientific, cat. PHG0311). The 485176-168-R4-J1-PDC line was cultured in Panc media, which includes all 6C/Colon 1B media components plus 100 ng/mL human FGF-10 (Thermo Fisher Scientific, cat. 100-26), 500 nM SB-431542 (Selleckchem, cat. S1067), and gastrin (Tocris, cat. 3006).
[…]

[1] = second compound 0.0316 µM, first compound 0.0316 µM
[2] = second compound 0.0316 µM, first compound 0.316 µM
[3] = second compound 0.1 µM, first compound 0.0316 µM
[4] = second compound 0.1 µM, first compound 0.316 µM
[5] = second compound 0.316 µM, first compound 0.0316 µM
[6] = second compound 0.316 µM, first compound 0.316 µM
[7] = second compound 1 µM, first compound 0.0316 µM
[8] = second compound 1 µM, first compound 0.316 µM
[9] = second compound 3.16 µM, first compound 0.0316 µM
[10] = second compound 3.16 µM, first compound 0.316 µM
[11] = second compound 10 µM, first compound 0.0316 µM
[12] = second compound 10 µM, first compound 0.316 µM

C=CC(=O)N1CCN(c2nc(=O)n(-c3c(C)ccnc3C(C)C)c3nc(-c4c(O)cccc4F)c(F)cc23)C(C)C1 (centres undefined) + CN(C)c1ccc(Nc2c3ccc(NC(=O)CCN4CCCC4)cc3nc3cc(NC(=O)CCN4CCCC4)ccc23)cc1
IC50 (second compound 0.0316 µM): > 10000 nM
IC50 (second compound 0.1 µM): > 10000 nM
IC50 (second compound 0.316 µM): > 10000 nM
IC50 (second compound 1 µM): > 10000 nM
IC50 (second compound 3.16 µM): > 10000 nM
IC50 (second compound 10 µM): > 10000 nM
viability, T/C [1]: 106%
viability, T/C (second compound 0.0316 µM, first compound 0.1 µM): 101%
viability, T/C [2]: 105%
viability, T/C (second compound 0.0316 µM, first compound 1 µM): 110%
viability, T/C (second compound 0.0316 µM, first compound 3.16 µM): 122%
viability, T/C (second compound 0.0316 µM, first compound 10 µM): 101%
viability, T/C [3]: 99.7%
viability, T/C (second compound 0.1 µM, first compound 0.1 µM): 102%
viability, T/C [4]: 98.2%
viability, T/C (second compound 0.1 µM, first compound 1 µM): 113%
viability, T/C (second compound 0.1 µM, first compound 3.16 µM): 115%
viability, T/C (second compound 0.1 µM, first compound 10 µM): 108%
viability, T/C [5]: 96.1%
viability, T/C (second compound 0.316 µM, first compound 0.1 µM): 93.9%
viability, T/C [6]: 110%
viability, T/C (second compound 0.316 µM, first compound 1 µM): 114%
viability, T/C (second compound 0.316 µM, first compound 3.16 µM): 111%
viability, T/C (second compound 0.316 µM, first compound 10 µM): 101%
viability, T/C [7]: 96.5%
viability, T/C (second compound 1 µM, first compound 0.1 µM): 86.5%
viability, T/C [8]: 95.4%
viability, T/C (second compound 1 µM, first compound 1 µM): 103%
viability, T/C (second compound 1 µM, first compound 3.16 µM): 113%
viability, T/C (second compound 1 µM, first compound 10 µM): 96.7%
viability, T/C [9]: 88.3%
viability, T/C (second compound 3.16 µM, first compound 0.1 µM): 89.9%
viability, T/C [10]: 103%
viability, T/C (second compound 3.16 µM, first compound 1 µM): 104%
viability, T/C (second compound 3.16 µM, first compound 3.16 µM): 106%
viability, T/C (second compound 3.16 µM, first compound 10 µM): 85.4%
viability, T/C [11]: 86.8%
viability, T/C (second compound 10 µM, first compound 0.1 µM): 82.9%
viability, T/C [12]: 92.6%
viability, T/C (second compound 10 µM, first compound 1 µM): 90%
viability, T/C (second compound 10 µM, first compound 3.16 µM): 100%
viability, T/C (second compound 10 µM, first compound 10 µM): 69.2%

CCc1c2c(nc3ccc(O)cc13)-c1cc3c(c(=O)n1C2)COC(=O)[C@]3(O)CC + CN(C)c1ccc(Nc2c3ccc(NC(=O)CCN4CCCC4)cc3nc3cc(NC(=O)CCN4CCCC4)ccc23)cc1
IC50 (second compound 0.0316 µM): 11.9 nM
IC50 (second compound 0.1 µM): 14.8 nM
IC50 (second compound 0.316 µM): 6.28 nM
IC50 (second compound 1 µM): 6.73 nM
IC50 (second compound 3.16 µM): 5.8 nM
IC50 (second compound 10 µM): 6.81 nM
viability, T/C (second compound 0.0316 µM, first compound 0.000999 µM): 80%
viability, T/C (second compound 0.0316 µM, first compound 0.00316 µM): 44%
viability, T/C (second compound 0.0316 µM, first compound 0.00999 µM): 54.6%
viability, T/C [1]: 45.9%
viability, T/C (second compound 0.0316 µM, first compound 0.0999 µM): 38.9%
viability, T/C [2]: 20.7%
viability, T/C (second compound 0.1 µM, first compound 0.000999 µM): 70.2%
viability, T/C (second compound 0.1 µM, first compound 0.00316 µM): 45.6%
viability, T/C (second compound 0.1 µM, first compound 0.00999 µM): 52.8%
viability, T/C [3]: 48.1%
viability, T/C (second compound 0.1 µM, first compound 0.0999 µM): 41.6%
viability, T/C [4]: 23.5%
viability, T/C (second compound 0.316 µM, first compound 0.000999 µM): 64.1%
viability, T/C (second compound 0.316 µM, first compound 0.00316 µM): 45.7%
viability, T/C (second compound 0.316 µM, first compound 0.00999 µM): 45.3%
viability, T/C [5]: 47.5%
viability, T/C (second compound 0.316 µM, first compound 0.0999 µM): 37.7%
viability, T/C [6]: 26%
viability, T/C (second compound 1 µM, first compound 0.000999 µM): 63.8%
viability, T/C (second compound 1 µM, first compound 0.00316 µM): 42.2%
viability, T/C (second compound 1 µM, first compound 0.00999 µM): 47.2%
viability, T/C [7]: 48.8%
viability, T/C (second compound 1 µM, first compound 0.0999 µM): 35.5%
viability, T/C [8]: 23.5%
viability, T/C (second compound 3.16 µM, first compound 0.000999 µM): 64.1%
viability, T/C (second compound 3.16 µM, first compound 0.00316 µM): 42.1%
viability, T/C (second compound 3.16 µM, first compound 0.00999 µM): 47.2%
viability, T/C [9]: 46.1%
viability, T/C (second compound 3.16 µM, first compound 0.0999 µM): 35.6%
viability, T/C [10]: 23.5%
viability, T/C (second compound 10 µM, first compound 0.000999 µM): 67.2%
viability, T/C (second compound 10 µM, first compound 0.00316 µM): 39.2%
viability, T/C (second compound 10 µM, first compound 0.00999 µM): 49.1%
viability, T/C [11]: 46.8%
viability, T/C (second compound 10 µM, first compound 0.0999 µM): 37.2%
viability, T/C [12]: 22.4%
